From the NIST ThermoML archive (doi:10.1021/acs.jced.8b00310)

Experiment: molar heat capacity at constant pressure
Details: Gas, Flow calorimetry

FC(F)C(F)(F)F [pentafluoroethane]
Details | molar heat capacity at constant pressure [J/K/mol]
303.15 K, 1500 kPa | 129.62
307.15 K, 1500 kPa | 123.62
311.15 K, 1500 kPa | 121.1
313.15 K, 1500 kPa | 121.58
314.15 K, 2000 kPa | 147.63
315.15 K, 2000 kPa | 145.71
316.15 K, 2000 kPa | 145.35
317.15 K, 2000 kPa | 144.27
318.15 K, 2000 kPa | 143.43
319.15 K, 2000 kPa | 140.18
319.15 K, 2200 kPa | 158.55
320.15 K, 2000 kPa | 138.38
320.15 K, 2200 kPa | 159.03
321.15 K, 2000 kPa | 139.7
321.15 K, 2200 kPa | 156.99
322.15 K, 2000 kPa | 135.62
323.15 K, 2200 kPa | 153.75
323.15 K, 2400 kPa | 173.91
324.15 K, 2400 kPa | 168.03
325.15 K, 2400 kPa | 161.31
326.15 K, 2400 kPa | 159.03
327.15 K, 2400 kPa | 157.47
343.15 K, 500 kPa | 103.22
343.15 K, 650 kPa | 105.62
343.15 K, 1000 kPa | 108.26
343.15 K, 1500 kPa | 115.7
343.15 K, 2000 kPa | 123.14
343.15 K, 2200 kPa | 128.3
343.15 K, 2400 kPa | 134.42
